Assay results reported in patent US20020006399A1, “Therapeutic uses of hormonal manipulation using combinations of various agents to treat atherosclerosis” (priority 1999, published 2002).
Counter-ions that a name gives are not always drawn.

Assays:
Format in all cases: in vivo
[1] = tested on: patients diagnosed with benign prostatic hypertrophy; test: First retrospective study: cardiac events (cardiac bypass or heart attack) in BPH patients on finasteride vs alpha-blocker control; conditions: finasteride treated group of 22 subjects, 61 subject-years, on drug at least a year, 5 mg oral tablet a day; control 7 events over 288 subject-years
Experimental: Finasteride was being administered at a dosage of a single oral 5 mg tablet a day. This is the same tablet used in treatment of BPH as disclosed in U.S. Pat. No. 5,175,155 and such dosage applies in the present invention. However, use of a 2 mg or 10 mg oral tablet is contemplated. Two studies were undertaken to determine whether finasteride was, in fact, effective in lessening the incidence of heart disease and other complications of atherosclerosis. The result of the first study is as follows; A list of patients diagnosed with benign prostatic hypertrophy in late 1992 and 1993 was located. Treatment had been initiated with either finasteride or another oral agent of a different class (alpha-blocker). Patients were then contacted and an interval history was taken. In the control group of 45 subjects, 7 events (either cardiac bypass or heart attack) occurred in 6 subjects over 288 subject-years. In the finasteride treated group of 22 subjects there were no events over 61 subject-years. […] (95% Cl equal to 0.65% to 4.2%).

patients of the practice = test: Second study: questionnaire on cardiac events in patients of the practice treated with finasteride
Experimental: Finasteride was being administered at a dosage of a single oral 5 mg tablet a day. This is the same tablet used in treatment of BPH as disclosed in U.S. Pat. No. 5,175,155 and such dosage applies in the present invention. However, use of a 2 mg or 10 mg oral tablet is contemplated. Two studies were undertaken to determine whether finasteride was, in fact, effective in lessening the incidence of heart disease and other complications of atherosclerosis. In the second study patients of the practice were given a questionnaire. Various patients had been treated with finasteride for varying lengths of time. Only those on the drug for at least one year were considered. The average time on finasteride was 3 years. The number of cardiac events occurring in the patients taking finasteride was only 4 events over 242 patient-years. (1.6%/yr.) In the control group 26 events occurred in the 3 years prior over 732 patient-years. (3.5%/yr.) The 45% decrease observed in cardiac events is believed to be significant. (90% Cl equal to 1.4% to 3.7%).

[2] = tested on: patients treated for benign prostatic hypertrophy; test: Clinical observation of patients given finasteride for benign prostatic hypertrophy; conditions: finasteride single oral 5 mg tablet a day for BPH
Experimental: Finasteride was being administered at a dosage of a single oral 5 mg tablet a day. This is the same tablet used in treatment of BPH as disclosed in U.S. Pat. No. 5,175,155 and such dosage applies in the present invention. However, use of a 2 mg or 10 mg oral tablet is contemplated.

prostate cancer patients = test: Retrospective chart review: cardiac events in prostate cancer patients treated with LHRH inhibitors vs controls; conditions: for Events/Year: cardiac events per subject year, Total Control .0338; for observed difference between the proportions vs Total Control: events/year, treated group vs Total Control (Groups 1 + 4); for Cardiac Events: heart attack, coronary artery bypass or angioplasty, on drug at least one year, Total Control 32 events over 948 subject years; for heart attacks compared with controls: treated patients vs controls
Experimental: Another retrospective study was performed which compared the rates of patient reported heart attack in several groups 1-control group of males entering the urology office for any routine complaint. 2-a group of prostate cancer patients treated with Leuprolide acetate, a LHRH inhibitor. 3-a group of prostate cancer patients treated with Goserelin acetate (Zoladex), a LHRH inhibitor. 4-a group of prostate cancer patients not treated with hormonal manipulation (neither Leuprolide or Goserelin). 5-all patients on LHRH inhibitors (group 2+group 3). The patients on either Leuprolide or Goserelin were treated with the recommended doses indicated for the treatment of prostatic carcinoma, at either one or three month intervals depending on the preparation used. Leuprolide was dosed at 7.5 mg monthly (single intramuscular injection) or at 22.5 mg at 3 month intervals (single intramuscular injection). Goserelin was dosed at 3.6 mg monthly or at a dose of 10.8 mg at 3 month intervals (subcutaneous injection). The various groups of office patients were evaluated by chart […]. In groups 2 and 3 only those on drug for at least one year were considered. Cardiac event is defined either the history of a heart attack or occurrence of coronary artery bypass or angioplasty. In control groups only events occurring in the 3 years prior to the questionnaire are charted.

In the case of `CC(C)(C)NC(=O)[C@H]1CC[C@H]2[C@@H]3CC[C@H]4NC(=O)C=C[C@]4(C)[C@H]3CC[C@]12C` [finasteride, 4-azaandrost-1-ene-17-carboxamide, N-(1,1-dimethylethyl)-3oxo-(5alpha 17beta)-], the “events (either cardiac bypass or heart attack)” value [1] is reported as “no events”, the cardiac event rate (patients of the practice; 4 events over 242 patient-years, control 3.5%/yr) is reported as 1.6 %/yr and the “decrease observed in cardiac events” value (patients of the practice; finasteride vs control group) is reported as 45%. The “number of cardiac events” value (patients of the practice; over 242 patient-years, on drug at least one year, average 3 years, control 26 events over 732 patient-years) was 4 events and the “incidence of atherosclerosis and heart disease (observation)” value [2] was “lower incidence of atherosclerosis and heart disease”.

For `CCNC(=O)[C@@H]1CCCN1C(=O)[C@H](CCCNC(=N)N)NC(=O)[C@H](CC(C)C)NC(=O)[C@@H](CC(C)C)NC(=O)[C@H](Cc1ccc(O)cc1)NC(=O)[C@H](CO)NC(=O)[C@H](Cc1c[nH]c2ccccc12)NC(=O)[C@H](Cc1c[nH]cn1)NC(=O)[C@@H]1CCC(=O)N1` [Lupron, 5-oxo-L-prolyl-L-histidyl-L-tryptophyl-L-seryl-L-tyrosyl-D-leucyl-L-leucyl-L-arginyl-N-ethyl-L-prolinamide acetate (salt)], the Events/Year (prostate cancer patients) was “.00847”, the “observed difference between the proportions vs Total Control” value (prostate cancer patients) was 0.253 and the “Cardiac Events” value (prostate cancer patients) was 1. The “heart attacks compared with controls” value (prostate cancer patients) was “fewer heart attacks than controls”.

In the case of `CC(C)C[C@H](NC(=O)[C@@H](COC(C)(C)C)NC(=O)[C@H](Cc1ccc(O)cc1)NC(=O)[C@H](CO)NC(=O)[C@H](Cc1c[nH]c2ccccc12)NC(=O)[C@H](Cc1cnc[nH]1)NC(=O)[C@@H]1CCC(=O)N1)C(=O)N[C@@H](CCCNC(=N)N)C(=O)N1CCC[C@H]1C(=O)NNC(N)=O` [Zoladex, pyro-Glu-His-Trp-Ser-Tyr-D-Ser(Bu)-Leu-Arg-Pro-Azgly-NH2 acetate], the Events/Year (prostate cancer patients) is reported as “.0161”, the “observed difference between the proportions vs Total Control” value (prostate cancer patients) is reported as 0.0177 and the “Cardiac Events” value (prostate cancer patients) is reported as 1. The “heart attacks compared with controls” value (prostate cancer patients) was “fewer heart attacks than controls”.
